What all share (assay): inhibition of tumour cell growth, NCI panel, 48 h
The subject of experiment [1] is SNB-19 CNS.
The subject of experiment [2] is MOLT-4 leukemia.
For experiment [3], the system named is SF-539 CNS.
Experiment [4] deals with HS 578T breast.
Experiment [5] relates to SN12C renal.
Experiment [6] relates to UO-31 renal.
The test system of experiment [7] is HOP-62 NSCLC.
Experiment [8] has as its system UACC-62 melanoma.
Experiment [9] deals with IGROV1 ovarian.
Experiment [10] deals with SK-MEL-2 melanoma.
The test system of experiment [11] is PC-3 prostate.
Experiment [12] concerns K-562 leukemia.
In experiment [13] the test system is HCT-116 colon.
Experiment [14] deals with HCC-2998 colon.
For experiment [15], the system named is UACC-257 melanoma.
Experiment [16] concerns NCI/ADR-RES ovarian.
For experiment [17], the system named is MDA-N.
Experiment [18] deals with MDA-MB-231 breast.
The subject of experiment [19] is SK-MEL-28 melanoma.
The subject of experiment [20] is BT-549 breast.

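Exposure lasted 48 hours, with cells grown in 96-well plates and compounds tested at five concentrations. The concentration for full growth arrest is given as TGI.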

Regarding `Cc1nc2c(o1)C(=O)c1ccccc1C2=Nc1ccc(N2CCOCC2)cc1`, the TGI in experiment [1] was determined as 36.9 µM; in experiment [2], 31.5 µM; in experiment [3], 6 µM; in experiment [4], 12.5 µM; in experiment [5], 10.2 µM; in [6], 10.2 µM. Moreover, the TGI in [7] was 22.3 µM; in experiment [8] it was 3.73 µM; in experiment [9] it was 30.4 µM; in experiment [10], 9.63 µM; in [11], 7.37 µM; in experiment [12] it was 11.6 µM. In addition, the TGI is 13.6 µM in experiment [13]; 99.8 µM in experiment [14]; 4.64 µM in experiment [15]; greater than 29.6 µM in experiment [16]; 3.5 µM in [17]; 8.84 µM in [18]. For the same molecule, the results for the TGI in [19] and in experiment [20] were 7.69 µM and 5.73 µM, respectively.
As to `COCn1c(C)c(C)c2c(=O)oc(N(C)C)nc21`, the TGI in experiment [1], in [2], in experiment [3], in experiment [4], in experiment [5] and in experiment [6] was greater than 100 µM in each case. Further, the TGI in experiment [7], in experiment [8], in experiment [9], in experiment [10], in experiment [11] and in experiment [12] was greater than 100 µM each time. The TGI in experiment [13], in [14], in experiment [15], in [16], in experiment [17] and in experiment [18] was greater than 100 µM each time. The TGI in experiment [19] and in experiment [20] was greater than 100 µM each time.
As to `Cc1ccc(C)c2c1CC(Cc1ccccc1C(=O)O)C2=O` (stereo not given), the TGI in experiment [1], in [2], in experiment [3], in experiment [4], in experiment [5] and in experiment [6] was greater than 100 µM throughout. Also, the TGI in experiment [7], in experiment [8], in experiment [9], in [10], in experiment [11] and in experiment [12] was greater than 100 µM each time. In addition, the TGI in experiment [13], in experiment [14], in [15], in [16], in experiment [17] and in [18] was greater than 100 µM in each case. Further, the TGI in [19] and in [20] was greater than 100 µM each time.
Take `COc1ccc(/C(CC2OC(=O)c3ccccc32)=N\NC(=O)C[N+](C)(C)C)cc1` (stereo not given): the TGI in [1] was 96.5 µM; in experiment [2], 70.2 µM; in experiment [3], greater than 100 µM; in experiment [4] it was greater than 100 µM; in experiment [5], greater than 100 µM; in experiment [6], 79.6 µM. Further, the TGI was greater than 100 µM in experiment [7]; 40.1 µM in experiment [8]; greater than 100 µM in experiment [9]; 94.2 µM in experiment [10]; greater than 100 µM in [11]; 48.4 µM in [12]. For the same molecule, the TGI in experiment [13] is 81.9 µM; in [14] it was 30.9 µM; in experiment [15], 91.8 µM; in experiment [16], 56.7 µM; in experiment [17], greater than 100 µM; in experiment [18], greater than 100 µM. Moreover, the TGI in [19] worked out at 55.5 µM; in [20], 77.1 µM.
With `C#CCCCOc1ncccn1`, the TGI in [1], in experiment [2], in experiment [3], in experiment [4], in [5] and in experiment [6] was greater than 100 µM each time. Besides, the TGI in experiment [7], in [8], in [9], in [10], in experiment [11] and in [12] was greater than 100 µM throughout. Further, the TGI in experiment [13], in experiment [14], in experiment [15], in experiment [16], in experiment [17] and in [18] was greater than 100 µM in each case. The TGI in [19] and in experiment [20] was greater than 100 µM each time.
As for `CN1CCN(CCCCN2c3ccccc3Sc3cc(N=[N+]=[N-])ccc32)CC1`, the TGI is 10.8 µM in experiment [1]; 4.12 µM in experiment [2]; 8.31 µM in experiment [3]; 5.02 µM in [4]; 6.46 µM in [5]; 3.76 µM in experiment [6]. Besides, the TGI turned out to be 6.63 µM in experiment [7]; 3.92 µM in experiment [8]; 4.26 µM in experiment [9]; 5.04 µM in experiment [10]; 3.57 µM in [11]; 3.04 µM in experiment [12]. The TGI in [13] was found to be 2.98 µM; in experiment [14], 2.92 µM; in [15], 3.89 µM; in [16] it was 7.86 µM; in experiment [17], 11.2 µM; in experiment [18], 4.14 µM. Further, the TGI in experiment [19] worked out at 3.52 µM; in [20], 21.9 µM.
For the molecule `CCOC(=O)C(NCc1cccc(C(F)(F)F)c1)(NC(=O)CC)C(F)(F)F` (stereo not given), the TGI in [1], in experiment [2], in [3], in experiment [4], in experiment [5] and in experiment [6] was greater than 100 µM in each case. The TGI in experiment [7], in [8], in experiment [9], in experiment [10], in experiment [11] and in experiment [12] was greater than 100 µM throughout. Besides, the TGI in experiment [13], in experiment [14], in experiment [15], in experiment [16], in [17] and in [18] was greater than 100 µM in each case. The TGI in experiment [19] and in [20] was greater than 100 µM each time.

Source of the values: PubChem BioAssay (NCI).
